“Also recorded” adds a separate entry of the source.
How the values were obtained:
Type in all cases: cell-based
[1] = test system: JNK3 activation by wtDLK-GFP; assay: JNK3 activation by wtDLK-GFP in cotransfected HEK293T cells, detected by phosphoJNK antibody; conditions: HEK293T cells expressing myc-JNK3 plus wtDLK-GFP; vs EtOH vehicle
Procedure: FIG. 2A: HEK293T cells expressing myc-JNK3 plus wtDLK-GFP were treated with the palmitoylation inhibitor 2-Bromopalmitate (2-Br) or EtOH (vehicle). […] FIG. 2B: HEK293T cells were transfected with myc-JNK3 plus either wtDLK-GFP or a DLK palmitoyl site mutant (DLK-CS-GFP). Only wtDLK-GFP activates JNK3, as detected by phosphoJNK antibody.

[2] = target: T1, DLK-GFP (Homo sapiens, UniProt Q12852); assay: Acyl-Biotin Exchange (ABE) palmitoylation assay, DLK-GFP in HEK293T cells
T1 sequence (Q12852 1-892 isoform Q12852-2): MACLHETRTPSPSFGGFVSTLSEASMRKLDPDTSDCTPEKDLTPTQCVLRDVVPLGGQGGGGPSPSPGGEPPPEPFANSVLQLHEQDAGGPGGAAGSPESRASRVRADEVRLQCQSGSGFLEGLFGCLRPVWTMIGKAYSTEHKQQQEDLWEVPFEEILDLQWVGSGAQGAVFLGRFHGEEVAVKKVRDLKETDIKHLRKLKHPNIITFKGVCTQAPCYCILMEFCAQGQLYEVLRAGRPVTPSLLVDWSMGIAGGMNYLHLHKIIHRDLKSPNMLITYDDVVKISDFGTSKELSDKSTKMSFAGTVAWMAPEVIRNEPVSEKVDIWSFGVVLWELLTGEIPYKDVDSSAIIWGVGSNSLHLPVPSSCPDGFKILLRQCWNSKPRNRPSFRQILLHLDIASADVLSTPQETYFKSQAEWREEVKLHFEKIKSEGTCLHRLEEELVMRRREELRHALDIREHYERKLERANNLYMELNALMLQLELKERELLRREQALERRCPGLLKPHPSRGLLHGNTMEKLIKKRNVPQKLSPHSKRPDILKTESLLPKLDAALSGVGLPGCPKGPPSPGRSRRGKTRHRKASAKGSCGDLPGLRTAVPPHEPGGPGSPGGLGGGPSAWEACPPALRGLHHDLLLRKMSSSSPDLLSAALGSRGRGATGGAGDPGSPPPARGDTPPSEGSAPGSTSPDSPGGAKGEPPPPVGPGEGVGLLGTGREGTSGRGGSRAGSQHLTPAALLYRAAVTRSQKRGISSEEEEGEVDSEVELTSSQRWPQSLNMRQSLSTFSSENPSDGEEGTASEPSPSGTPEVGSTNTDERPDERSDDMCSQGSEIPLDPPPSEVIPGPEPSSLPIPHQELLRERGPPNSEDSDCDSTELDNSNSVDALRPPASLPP
From the text: FIG. 4 depicts an orthogonal assay to confirm mechanism of action (MOA) of HTS Hits. HEK293T cells were transfected with wt-DLK-GFP or DLK-CS-GFP and palmitoyl-proteins were isolated by Acyl-Biotin Exchange (ABE). Palmitoyl-DLK is robustly detected in ABE fractions but no ABE signal is seen from cells treated with 2-Br, or if DLK's palmitoyl-site is mutated. DLK expressed similarly in all conditions. (Holland, 2016)
(§1) FIG. 8A depicts an experiment in which HEK293T cells transiently transfected with DLK-GFP and mCherry-NLS and subsequently incubated with the indicated concentrations of Ketoconazole or 20 μM 2BP 2 hours post-transfection for 16-18 h. Cells were fixed and stained with DAPI. Scale bar represents 50 μm. FIG. 8B depicts quantified DLK puncta/NLS and nuclear counts (DAPI) from cells transfected as in FIG. 8A and treated with the indicated concentrations of ketoconazole. FIG. 8C depicts an experiment in which transiently transfected HEK293T cells were prepared as in FIG. 8A and palmitoylation (HAM+) was detected using the ABE assay. HAM- sample was generated from an equal fraction of all conditions combined.
HEK293T cells were transiently transfected with FIG. 9A) DLK-GFP, FIG. 9B) GAP43-Myc, FIG. 9C) and untagged PSD95 and incubated with 20 μM 2BP, or with 2.5 μM or 5 μM ketoconazole 2 h post-transfection for 16-18 h. Palmitoylation was detected using the ABE assay (left) and quantified from n=4 determinations per condition (right). HAM- includes an equal fraction of all conditions combined. […]
(§2) If changes in DLK localization observed by high-content imaging are indeed due to altered DLK palmitoylation then this should also be reflected in biochemical assays of DLK palmitoylation levels. Palmitoylation of numerous proteins, including DLK, has been previously monitored using a non-radioactive palmitoylation assay, Acyl-Biotin Exchange (ABE) (Holland, 2016; Thomas, 2012). […] WtDLK-GFP was robustly detected in ABE fractions but was absent from controls in which the essential ABE reagent hydroxylamine (NH2OH) was omitted (FIG. 4). […]

[3] = test system: HEK293T cells; assay: mCherry-NLS×3 expression and DAPI nuclear signal (toxicity / non-specific effect readout of the screen); conditions: HEK293T co-transfected with DLK-GFP plus mCherry-NLS×3
Procedure: (§3) FIG. 7A depicts HEK293T cells co-transfected with DLK-GFP plus mCherry-NLS×3 and then treated with 2BP or vehicle were fixed to detect GFP, mCherry and the nuclear marker DAPI. […] FIG. 7B depicts design of the high-throughput screen for compounds that inhibit DLK-GFP puncta formation. FIG. 7C depicts compounds from the Prestwick Chemical Library™, which were spotted onto 96 well plates at 10 mM per compound in DMSO and diluted in DMEM prior to adding to transfected cells in duplicate at a final concentration of 10 micromolar (similar to the flow chart in FIG. 7B). 16 h later, cells were fixed in 4% PFA and stained with DAPI. High-content imaging was performed using an ImageXPress Image Analysis ‘TransFluor’ and Multi-wavelength scoring (MWS) modules. Data are plotted as total number of puncta (TransFluor Module) per total NLS (MWS module) for each compound. Drugs that decreased the nuclear NLS and/or DAPI markers below 3 times the […] were excluded due to likely toxicity or non-specific effects (plotted in grey). ‘Hits’ were drugs characterised as decreasing all ‘puncta’ readouts by more than 3 times the SD and included in 2 replicates.

[4] = target: T1, DLK-GFP; assay: DLK-GFP puncta / membrane localization in transfected HEK293T cells (high-content imaging, ImageXpress)
Procedure: FIG. 3A: HEK293T cells were transfected with wtDLK-GFP or DLK-CS-GFP and treated 4 h later with 2-Br or vehicle. Top: Live images of GFP fluorescence, acquired 8 h post-transfection. […] FIG. 3B: A subset of cells from FIG. 3A were fixed and immunostained with anti-GFP antibody. Images of GFP fluorescence (n=5 per condition) were analyzed by ImageXpress software. Palmitoylation-dependent differences in number of DLK-GFP puncta are readily detectable.
FIG. 6A depicts HEK293T cells transiently expressing DLK-GFP, fixed and immunostained with antibodies to detect GFP and the Golgi marker GM130. FIG. 6B depicts HEK293T cells, transfected as in FIG. 6A to express either wild type DLK-GFP (DLK-GFP) or a DLK palmitoylation site mutant (C127S-DLK-GFP). […] FIG. 6C depicts results from an experiment in which HEK293T cells were seeded into 12 wells of a 96-well plate and transfected with DLK-GFP and then treated with 2BP or vehicle (6 wells per condition). Cells were fixed in PFA and imaged using an ImageXpress High Content Imaging system to detect GFP signal. Assay quality was determined by calculating the z-prime (z′) for 6 determinations for each of the indicated conditions (z′=S/R, S=[(Mean of Vehicle treated−3×SD)−(Mean of 2BP−3×SD)], R=Vehicle Mean−2BP mean).
as §3, §1
In transfected HEK 293T cells, GFP-tagged wild type DLK (wtDLK-GFP) clearly localizes to intracellular membranes (FIG. 3, top). These membranes are distinct from the vesicles reported in neurons (likely due to different trafficking of DLK in non-neuronal cells) and instead overlap with Golgi markers, likely because many mammalian palmitoyl acyltransferases (PATs) localize to the Golgi (Levy, 2011; Ohno, 2006). […] In identically thresholded images, wtDLK-GFP puncta could be readily observed, that were absent in the 2-Br-treated and DLK-CS-GFP images (FIG. 3A, bottom). It was thus reasoned that this palmitoylation-dependent change in DLK localization should be quantifiable using high-content imaging software. […] High-content imaging detection is thus well suited to identify novel pharmacological inhibitors of DLK palmitoylation.

[5] = test system: GAP43-Myc; assay: Acyl-Biotin Exchange (ABE) palmitoylation assay, GAP43-Myc in HEK293T cells; conditions: 2.5 μM or 5 μM, 2 h post-transfection for 16-18 h, n=4; ANOVA not significant
Procedure: (§4) HEK293T cells were transiently transfected with FIG. 9A) DLK-GFP, FIG. 9B) GAP43-Myc, FIG. 9C) and untagged PSD95 and incubated with 20 μM 2BP, or with 2.5 μM or 5 μM ketoconazole 2 h post-transfection for 16-18 h. Palmitoylation was detected using the ABE assay (left) and quantified from n=4 determinations per condition (right). HAM- includes an equal fraction of all conditions combined. […] One-way ANOVA, Kruskal-Wallis post-hoc analysis; FIG. 9A) ANOVA p=0.0214, h=7.692, FIG. 9B) ANOVA not significant, FIG. 9C) ANOVA p=0.0158, h=8.290. Error bars represent SEM.
as §2, with “2012). ABE uses an exchange of thioester-linked acyl modifications (i.e. palmitoylation), for biotin, with the resultant biotinylated proteins being affinity-purified from cell lysates using neutravidin-conjugated beads.” for “2012).”

[6] = test system: PSD95; assay: Acyl-Biotin Exchange (ABE) palmitoylation assay, untagged PSD95 in HEK293T cells; conditions: 2.5 μM or 5 μM, 2 h post-transfection for 16-18 h, n=4; ANOVA p=0.0158
Procedure: as §4
as §2, with “2012). ABE uses an exchange of thioester-linked acyl modifications (i.e. palmitoylation), for biotin, with the resultant biotinylated proteins being affinity-purified from cell lysates using neutravidin-conjugated beads.” for “2012).”

[7] = test system: phospho-cJun; assay: DLK-mediated phospho-cJun activation after NGF withdrawal in DRG neurons (Western blot); conditions: DRG neurons DIV 7, 2.5 μM overnight pretreatment, 2.5 h NGF withdrawal; Bonferroni post-test p<0.01
Procedure: FIG. 10A depicts an experiment in which dorsal Root Ganglion (DRG) neurons were pretreated at 7 Days in vitro (DIV 7) with 2.5 μM Ketoconazole overnight or 20 μM 2BP for 2 h prior to a 2.5 h NGF withdrawal in presence of the indicated compound. Cells were lysed in SDS-PAGE loading buffer and levels of endogenous DLK, phospho-cJun and tubulin were detected by Western blot.
FIG. 10B depicts quantification of phospho-cJun normalised to -NGF vehicle treated cells. Two-way ANOVA indicates significant effects of interaction (p=0.0071), NGF (p=0.0026) and Ketoconazole (p=0.0001). The effect of Ketoconazole in DRGs undergoing NGF withdrawal was also significant as determined by the Bonferroni post-test (p<0.01). Error bars represent SEM.

| Compound | JNK3 activation (phosphorylation) by wtDLK-GFP [1] | palmitoyl-DLK signal in ABE fractions ([2]; HEK293T transfected with wtDLK-GFP) | mCherry-NLS×3 expression and DAPI signal [3] | DLK-GFP puncta ([4]; HEK293T co-transfected with DLK-GFP plus mCherry-NLS×3) | Golgi-associated clusters of DLK-GFP ([4]; HEK293T transiently expressing DLK-GFP) | DLK localization quantified by ImageXpress 'TransFluor' module (number of DLK-GFP puncta) ([4]; HEK293T, fixed, anti-GFP immunostained, n=5 images per condition) | membrane-localized wtDLK-GFP puncta / DLK-GFP membrane association ([4]; HEK293T, treated 4 h post-transfection, imaged 8 h post-transfection, thresholded images) | palmitoylation of DLK (ABE) ([2]; 2.5 μM or 5 μM, 2 h post-transfection for 16-18 h, n=4, ANOVA p=0.0214) | DLK palmitoylation (ABE, HAM+), dose response ([2]; HEK293T, compound 2 hours post-transfection for 16-18 h) | palmitoylation of GAP-43 (ABE) [5] | palmitoylation of PSD-95 (ABE) [6] | inhibition of DLK-GFP puncta formation (puncta per total NLS), rank in Prestwick Chemical Library screen ([4]; 10 micromolar final, duplicate, 16 h, 96-well) | DLK-GFP puncta (DLK puncta/NLS), dose response ([4]; HEK293T, DLK-GFP and mCherry-NLS, compound added 2 hours post-transfection for 16-18 h) | phospho-cJun normalised to -NGF vehicle treated cells [7] |
| --- | --- | --- | --- | --- | --- | --- | --- | --- | --- | --- | --- | --- | --- | --- |
| CCCCCCCCCCCCCCC(Br)C(=O)O (centres unmarked) [2-Br, 2-Bromopalmitate] | blocks JNK3 activation; also recorded: prevented DLK-dependent phosphorylation of JNK3 | no ABE signal | without affecting mCherry-NLS×3 expression or DAPI signal | reduces DLK-GFP puncta | diffuses the Golgi-associated clusters of DLK-GFP | dramatically alters DLK localization | completely disrupted DLK-GFP membrane association; also recorded: essentially absent | – | – | – | – | – | – | – |
| CC(=O)N1CCN(c2ccc(OCC3COC(Cn4ccnc4)(c4ccc(Cl)cc4Cl)O3)cc2)CC1 (centres unmarked) [Ketoconazole] | – | – | – | – | – | – | – | significantly reduces palmitoylation of DLK | inhibits DLK palmitoylation in a dose dependent manner | does not affect palmitoylation of GAP-43 | significantly reduces palmitoylation of DLK and PSD-95 | most potent compound to inhibit DLK-GFP puncta formation | decreases DLK-GFP puncta | significantly decreases DLK-mediated phospho-cJun activation; also recorded: significant |

— patent publication US20200166517A1, “Screening Method for Identification of Neuroprotective Compounds” (Temple University-Of The Commonwealth System of Higher …, priority 2017, published 2020)
